The values that follow come from patent US20120128630A1, “1-(6 MEMBERS AZO-HETEROCYCLIC)-PYRROLIN-2-ONE COMPOUNDS AS INHIBITORS OF HEPATITIS C NS5B POLYMERASE, THE PHARAMACEUTICAL COMPOSITION THEREOF AND THEIR THERAPEUTIC USE” (priority 2009, published 2012).

The inhibition is the change of the read-out against control, counted positive when it falls. High values mean a response far below the control, low ones a response near the control. For orientation: melting point means the temperature of the solid-liquid transition.

For series [1], the target named is T1, HCV NS5B genotype 1b (Hepatitis C virus genotype 1b, UniProt Q9WMX2).
T1 construct: The protein was expressed with a 21 amino acid C-terminal deletion to remove transmembrane domain; expressed in transfected cells; host or cells: Huh-7
The series can be described thus: 3D-SCREEN assay (NS5B 3D-Screen platform, luciferase reporter gene). The format is cell-based. Put shortly: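 Huh-7 cells transiently co-transfected with NS5BΔ21/Gal4-DBD, 3D-Sensor peptide I4/VP16 and firefly luciferase reporter. Compounds added 2 h after seeding, 1% DMSO final, 24 h incubation. Luciferase luminescence read; % inhibition relative to no-compound signal.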
(A reporter such as luciferase makes a cellular process visible.)

The subject of series [2] is HCV replicon Luc Neo ET. Description: Luc Neo ET Replicon assay. The format is cell-based, Hepatitis C virus. As to conditions: Table 3, titled RdRp enzyme assay results, EC50_Replicon LucneoET, 72 hours with compound, luciferase. Put shortly:
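Huh-7-derived Luc Neo ET bicistronic HCV replicon cells (adaptive mutations E1202G, T1280I, K1846T) treated 24 h after seeding with compounds for 72 h, 1% DMSO final, 37 °C. Firefly luciferase luminescence read after lysis; % inhibition from background-corrected RLU relative to untreated signal.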
A general note: A replicon is a self-replicating genome or part of one, used to study replication in cells.

For series [3], the target named is T2, HCV NS5B with a deletion of the 21 C-terminal amino acids (Hepatitis C virus genotype 1b, UniProt Q9WMX2).
T2 construct: purified HCV NS5B with a deletion of the 21 C-terminal amino acids
The series can be described thus: HCV NS5B RdRp enzyme assay. In kind it is biochemical. On the procedure:
The assay was performed in a total volume of 20 μl containing 20 mM Tris pH 7.5, 1 mM DTT, 17 U RNasin, 50 mM NaCl, 10% DMSO, 5 mM MgCl2, 0.5 mM each of the 3 NTPs (ATP, CTP, GTP), 86 nM RNA template (341 nt from the 3′ end of HCV minus strand RNA), 50 nM of purified HCV NS5B with a deletion of the 21 C-terminal amino acids and 2 μCi [^3H]UTP (46 Ci.mmol^−1). The reaction mixture was incubated for 2 h at 25-30° C. and the radiolabeled products were precipitated by the addition of 10% TCA. The radioactivity incorporated was quantified by counting in a Wallac scintillation counter. Increasing concentrations of tested compounds were added to the complete RdRp reaction mixture. After a two hour incubation period at 25-30° C., the amount of labeled product was determined as above. Two types of control reactions were done: a negative control corresponding to the complete mixture without enzyme and a positive control with enzyme but without compounds. In each experiment, test and control samples are in duplicate.
The level of activity with each compound concentration was expressed with the formulae: […]
The IC50 value was calculated as the compound concentration reducing polymerase activity by 50%.

[4] abbreviates: EC50_3DS_NS5B, Table 2, titled Replicon assay results.

Read-outs that look alike come from different tables or passages of the source.

Turning to `Cc1ccc(N2C(=O)C(O)=C(C(=O)c3ccc(C(C)C)cc3)C2c2ccc(C(F)(F)F)cc2)nn1` (stereo not shown) [Example 63, 3-hydroxy-4-(4-isopropyl-benzoyl)-1-(6-methyl-pyridazin-3-yl)-5-(4-trifluoromethyl-phenyl)-1,5-dihydro-pyrrol-2-one], the melting point was 268 to 270 °C. For the same molecule, in series [1] (EC50_3DS_NS5B, Table 1, 3D-SCREEN assay results, Huh-7 cells, 24 hours with compound, firefly luciferase reporter), the EC50 stood at 60 nM. For the same molecule, in series [2] (Hepatitis C virus, 72 h), the EC50 came out at 100 nM. Further, 10 µM produced 50% inhibition in series [3].

Molecule `Cc1ccc(N2C(=O)C(Cl)=C(C(=O)c3ccc(C(C)C)cc3)C2c2ccc(OC(F)(F)F)cc2)nn1` (stereo not shown) [Example 138, 3-chloro-4-(4-isopropyl-benzoyl)-1-(6-methyl-pyridazin-3-yl)-5-(4-trifluoromethoxy-phenyl)-1,5-dihydro-pyrrol-2-one] registered a melting point of 293 °C. Also, the EC50 in series [1] (setting [4]) was under 10000 nM. In series [2] (Hepatitis C virus, 72 h), the EC50 is under 10000 nM.

`C=C(C)c1ccc(C(=O)C2=C(O)C(=O)N(c3ccc(C)nn3)C2c2ccc(OC(F)(F)F)cc2)cc1` (stereo not shown) [Example 142, 3-hydroxy-4-(4-isopropenyl-benzoyl)-1-(6-methyl-pyridazin-3-yl)-5-(4-trifluoromethoxy-phenyl)-1,5-dihydro-pyrrol-2-one] yielded a melting point of 253 °C. In addition, the EC50 in series [1] (setting [4]) was under 1000 nM. In series [2] (Hepatitis C virus, 72 h), the EC50 is under 10000 nM.

Consider `Cc1ccc(N2C(=O)C(O)=C(C(=O)c3ccc(C(C)C)cc3)C2c2ccc(OC3CCOCC3)cc2)nn1` (stereo not shown) [Example 143, 3-hydroxy-4-(4-isopropyl-benzoyl)-1-(6-methyl-pyridazin-3-yl)-5-[4-(tetrahydro-pyran-4-yloxy)-phenyl]-1,5-dihydro-pyrrol-2-one], for which the melting point turned out to be 275 °C. In addition, the EC50 in series [1] (setting [4]) was under 10000 nM. The EC50 in series [2] (Hepatitis C virus, 72 h) is under 10000 nM.

In turn, `CC(C)c1ccc(C(=O)C2=C(O)C(=O)N(c3ccc(O)nn3)C2c2ccc(OC(F)(F)F)cc2)cc1` (stereo not shown) [Example 159, 3-hydroxy-1-(6-hydroxy-pyridazin-3-yl)-4-(4-isopropyl-benzoyl)-5-(4-trifluoromethoxy-phenyl)-1,5-dihydro-pyrrol-2-one] came in with a melting point of 255 °C. The EC50 in series [1] (setting [4]) was under 1000 nM. For the same molecule, in series [2] (Hepatitis C virus, 72 h), the EC50 is under 10000 nM.

On to `C=C(C)c1ccc(C2C(C(=O)c3ccc(C(C)C)cc3)=C(O)C(=O)N2c2ccc(C)nn2)cc1` (stereo not shown) [Example 160, 3-hydroxy-5-(4-isopropenyl-phenyl)-4-(4-isopropyl-benzoyl)-1-(6-methyl-pyridazin-3-yl)-1,5-dihydro-pyrrol-2-one], for which the melting point stood at 274 °C. In series [1] (setting [4]), this molecule showed an EC50 of under 1000 nM. In addition, the EC50 in series [2] (Hepatitis C virus, 72 h) is under 10000 nM.

Molecule `CC(C)c1ccc(C(=O)C2=C(O)C(=O)N(c3ccc(OCc4ccccc4)nn3)C2c2ccc(OC(F)(F)F)cc2)cc1` (stereo not shown) [Example 161, 1-(6-benzyloxy-pyridazin-3-yl)-3-hydroxy-4-(4-isopropyl-benzoyl)-5-(4-trifluoromethoxy-phenyl)-1,5-dihydro-pyrrol-2-one] returned a melting point of 269 °C. The molecule also registered an EC50 in series [1] (setting [4]) of under 1000 nM. The EC50 in series [2] (Hepatitis C virus, 72 h) is under 10000 nM.

As for `Cc1ccc(N2C(=O)C(O)=C(C(=O)c3ccc(C(C)C)cc3)C2c2ccc(OC(C)C)nc2)nn1` (stereo not shown) [Example 165, 3-hydroxy-5-(6-isopropoxy-pyridin-3-yl)-4-(4-isopropyl-benzoyl)-1-(6-methyl-pyridazin-3-yl)-1,5-dihydro-pyrrol-2-one], the melting point came out at 282 °C. This molecule had an EC50 in series [1] (setting [4]) of under 1000 nM. The EC50 in series [2] (Hepatitis C virus, 72 h) was under 1000 nM.

For the molecule `Cc1ccc(N2C(=O)C(O)=C(C(=O)c3ccc(C(C)C)cc3)C2c2ccc(OC(C)C)nc2)nn1.Cl` (stereo not shown) [Example 167, 3-hydroxy-5-(6-isopropoxy-pyridin-3-yl)-4-(4-isopropyl-benzoyl)-1-(6-methyl-pyridazin-3-yl)-1,5-dihydro-pyrrol-2-one; hydrochloride], the melting point worked out at 280 °C. The EC50 in series [1] (read-out: EC50_3DS_NS5B, Table 2, titled Replicon assay results) was under 1000 nM. Besides, in series [2], the EC50 is under 1000 nM.

`Cc1ccc(N2C(=O)C(O)=C(C(=O)c3ccc(C(C)C)cc3)[C@H]2c2ccc(OC(F)(F)F)cc2)nn1` [Example 188, 3-hydroxy-4-(4-isopropyl-benzoyl)-1-(6-methyl-pyridazin-3-yl)-5(R)-(4-trifluoromethoxy-phenyl)-1,5-dihydro-pyrrol-2-one] returned a melting point of 217 °C. In addition, the EC50 in series [1] (setting [4]) was under 100 nM. In addition, the EC50 in series [2] (Hepatitis C virus, 72 h) is under 100 nM.

As to `Cc1ccc(N2C(=O)C(O)=C(C(=O)c3ccc(C(C)C)cc3)[C@@H]2c2ccc(OC(F)(F)F)cc2)nn1` [Example 189, 3-hydroxy-4-(4-isopropyl-benzoyl)-1-(6-methyl-pyridazin-3-yl)-5(S)-(4-trifluoromethoxy-phenyl)-1,5-dihydro-pyrrol-2-one], the melting point was 221 °C. The same molecule came in with an EC50 in series [1] (setting [4]) of under 10000 nM. Moreover, the EC50 in series [2] (Hepatitis C virus, 72 h) is under 10000 nM.

Take `Cc1ccc(N2C(=O)C(O)=C(C(=O)c3ccc(C(C)C)cc3)[C@H]2c2ccc(C(F)(F)F)cc2)nn1` [Example 191, 3-hydroxy-4-(4-isopropyl-benzoyl)-1-(6-methyl-pyridazin-3-yl)-5(R)-(4-trifluoromethyl-phenyl)-1,5-dihydro-pyrrol-2-one]: the melting point worked out at 251 °C. Moreover, the EC50 in series [1] (setting [4]) is under 100 nM. Further, the EC50 in series [2] (Hepatitis C virus, 72 h) is under 100 nM.

`Cc1ccc(C(=O)C2=C(O)C(=O)N(c3ccc(C)nn3)[C@@H]2c2ccc(OC(F)(F)F)cc2)cc1` [Example 199, 3-hydroxy-4-(4-methyl-benzoyl)-1-(6-methyl-pyridazin-3-yl)-5(R)-(4-trifluoromethoxy-phenyl)-1,5-dihydro-pyrrol-2-one]: the melting point worked out at 215 °C. In series [1] (setting [4]), this molecule displayed an EC50 of under 1000 nM. Also, the EC50 in series [2] (Hepatitis C virus, 72 h) is under 1000 nM.
